Holding throughout (type): cell-based
For experiment [1], the target named is T1, human muscarinic M1 receptor (Homo sapiens, UniProt P11229).
T1 sequence (P11229 1-460): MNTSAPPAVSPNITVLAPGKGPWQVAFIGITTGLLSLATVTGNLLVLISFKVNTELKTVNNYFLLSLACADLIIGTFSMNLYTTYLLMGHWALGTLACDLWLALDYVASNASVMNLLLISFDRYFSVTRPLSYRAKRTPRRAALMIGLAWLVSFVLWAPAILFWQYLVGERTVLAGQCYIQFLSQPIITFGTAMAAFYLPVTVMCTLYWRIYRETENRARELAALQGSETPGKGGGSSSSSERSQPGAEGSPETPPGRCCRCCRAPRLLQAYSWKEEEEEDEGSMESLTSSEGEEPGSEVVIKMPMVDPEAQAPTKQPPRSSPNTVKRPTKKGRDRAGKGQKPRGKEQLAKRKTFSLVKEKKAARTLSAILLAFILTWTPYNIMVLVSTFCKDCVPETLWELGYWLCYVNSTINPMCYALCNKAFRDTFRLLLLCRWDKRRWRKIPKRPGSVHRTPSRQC
As to the kind of experiment: Phospho-ERK1/2 assay, muscarinic M1. The settings on record: for EC50: CHO cells expressing human M1, phospho-ERK1/2 Alphascreen, read-out: pEC50 M1 (converted); for Emax: CHO, read-out: % Emax cf. ACh (M1). The protocol:
(§1) Functional assays were performed using the Alphascreen Surefire phospho-ERK1/2 assay (Crouch & Osmond, Comb. Chem. High Throughput Screen, 2008). ERK1/2 phosphorylation is a downstream consequence of both Gq/11 and Gi/o protein coupled receptor activation, making it highly suitable for the assessment of M1, M3 (Gq/11 coupled) and M2, M4 receptors (Gi/o coupled), rather than using different assay formats for different receptor subtypes. CHO cells stably expressing the human muscarinic M1, M2, M3 or M4 receptor were plated (25K/well) onto 96-well tissue culture plates in MEM-alpha+10% dialysed FBS. Once adhered, cells were serum-starved overnight. Agonist stimulation was performed by the addition of 5 μL agonist to the cells for 5 min (37° C.). Media was removed and 50 μL of lysis buffer added. After 15 min, a 4 μL sample was transferred to 384-well plate and 7 μL of detection mixture added. Plates were incubated for 2 h with gentle agitation in the dark and then read on a PHERAstar plate reader.
(§2) pEC50 and Emax figures were calculated from the resulting data for each receptor subtype.
In general terms: Bead proximity is the source of the signal in Alpha formats.

Experiment [2] addresses T2, human muscarinic M2 receptor (Homo sapiens, UniProt P08172).
T2 sequence (P08172 1-466): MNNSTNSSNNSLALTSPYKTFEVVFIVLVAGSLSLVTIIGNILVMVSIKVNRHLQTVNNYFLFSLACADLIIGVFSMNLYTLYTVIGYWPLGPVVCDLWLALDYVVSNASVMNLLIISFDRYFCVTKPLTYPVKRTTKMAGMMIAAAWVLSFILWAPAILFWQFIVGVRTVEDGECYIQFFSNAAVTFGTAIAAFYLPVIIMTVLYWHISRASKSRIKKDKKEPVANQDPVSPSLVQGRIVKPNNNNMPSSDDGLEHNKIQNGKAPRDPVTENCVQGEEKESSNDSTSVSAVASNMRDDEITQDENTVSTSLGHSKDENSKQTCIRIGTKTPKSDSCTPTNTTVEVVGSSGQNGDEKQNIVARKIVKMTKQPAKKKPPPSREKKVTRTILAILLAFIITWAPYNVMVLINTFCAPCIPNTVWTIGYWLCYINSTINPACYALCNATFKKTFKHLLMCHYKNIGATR
As to the kind of experiment: Phospho-ERK1/2 assay, muscarinic M2. The conditions noted are these: for EC50: CHO cells expressing human M2, phospho-ERK1/2 Alphascreen, read-out: pEC50 M2 (converted); for Emax: CHO, read-out: % Emax cf. ACh (M2). The protocol: as §1, §2

The target in experiment [3] is T3, human muscarinic M3 receptor (Homo sapiens, UniProt P20309).
T3 construct: expressed in transfected cells
As to the kind of experiment: Phospho-ERK1/2 assay, muscarinic M3. The conditions noted are these: for EC50: CHO cells expressing human M3, phospho-ERK1/2 Alphascreen, read-out: pEC50 M3 (converted); for Emax: CHO, read-out: % Emax cf. ACh (M3). The protocol: as §1, §2

For experiment [4], the target named is T4, human muscarinic M4 receptor (Homo sapiens, UniProt P08173).
T4 construct: expressed in transfected cells
T4 sequence (P08173 1-479): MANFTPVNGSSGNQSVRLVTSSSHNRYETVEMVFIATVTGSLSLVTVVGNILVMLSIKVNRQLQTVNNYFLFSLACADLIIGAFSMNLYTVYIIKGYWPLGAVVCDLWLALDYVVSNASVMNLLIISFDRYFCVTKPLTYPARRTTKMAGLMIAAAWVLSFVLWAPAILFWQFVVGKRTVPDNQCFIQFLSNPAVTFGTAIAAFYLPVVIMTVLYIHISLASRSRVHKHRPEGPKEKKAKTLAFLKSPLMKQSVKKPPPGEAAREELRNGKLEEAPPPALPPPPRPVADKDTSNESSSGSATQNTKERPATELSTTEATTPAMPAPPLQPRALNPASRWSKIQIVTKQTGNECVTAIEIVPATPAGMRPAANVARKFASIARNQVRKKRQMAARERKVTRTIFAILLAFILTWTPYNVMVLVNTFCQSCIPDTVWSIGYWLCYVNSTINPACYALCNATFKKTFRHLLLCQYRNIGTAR
As to the kind of experiment: Phospho-ERK1/2 assay, muscarinic M4. The settings on record: for EC50: CHO cells expressing human M4, phospho-ERK1/2 Alphascreen, read-out: pEC50 M4 (converted); for Emax: CHO, read-out: % Emax cf. ACh (M4). The protocol: as §1, §2

Where only a bound is given, the exact number is not on record here.

T3 sequence (P20309 whole entry): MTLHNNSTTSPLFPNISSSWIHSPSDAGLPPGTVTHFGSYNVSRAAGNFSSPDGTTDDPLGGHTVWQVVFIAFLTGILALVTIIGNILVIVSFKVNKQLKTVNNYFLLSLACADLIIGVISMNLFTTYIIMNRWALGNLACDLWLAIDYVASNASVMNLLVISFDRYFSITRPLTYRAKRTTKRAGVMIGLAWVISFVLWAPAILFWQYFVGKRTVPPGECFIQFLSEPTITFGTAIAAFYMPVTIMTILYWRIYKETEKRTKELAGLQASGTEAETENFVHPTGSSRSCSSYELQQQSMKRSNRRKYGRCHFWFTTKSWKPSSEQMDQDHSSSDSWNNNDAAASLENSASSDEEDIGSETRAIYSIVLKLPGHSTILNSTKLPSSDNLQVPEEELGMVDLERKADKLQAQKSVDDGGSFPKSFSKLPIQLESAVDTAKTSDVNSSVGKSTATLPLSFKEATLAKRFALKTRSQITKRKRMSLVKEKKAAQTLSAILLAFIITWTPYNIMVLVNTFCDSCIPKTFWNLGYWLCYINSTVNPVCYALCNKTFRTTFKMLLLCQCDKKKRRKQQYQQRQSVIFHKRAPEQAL

Regarding `CCOC(=O)N1CCCC(N2CCC(C(=O)NCC3(C)CCC3)CC2)CC1` (centres unmarked) [Example 69, ethyl 4-(4-{[(1-methylcyclobutyl)methyl]carbamoyl}piperidin-1-yl)azepane-1-carboxylate], the EC50 in experiment [1] is 10.5 nM; in experiment [2] it was > 20000 nM; in experiment [3], > 20000 nM; in experiment [4] it was 240 nM. For the same molecule, the Emax (usually the greatest response seen or fitted, relative to the assay's reference) in experiment [1] came to 120%; in experiment [2], 12%; in experiment [3], 14%; in experiment [4], 78%.

Take `CCOC(=O)N1CCCC(N2CCC(C(=O)NCC(C)CC)CC2)CC1` (centres unmarked) [Example 8, ethyl 4-(4-((2-methylbutyl)carbamoyl)piperidin-1-yl)azepane-1-carboxylate]: the EC50 is 151 nM in experiment [1], > 20000 nM in experiment [2], > 20000 nM in experiment [3] and 1660 nM in experiment [4]. Besides, the Emax was found to be 93% in experiment [1], 3% in experiment [2], 2% in experiment [3] and 55% in experiment [4].

As for `CCOC(=O)N1CCCC(N2CCC(OC)(C(=O)NCC3(C)CCC3)CC2)CC1` (centres unmarked) [Example 81, ethyl 4-(4-methoxy-4-{[(1-methylcyclobutyl)methyl]carbamoyl}piperidin-1-yl)azepane-1-carboxylate], the EC50 in experiment [1] is 141 nM; in experiment [2], > 20000 nM; in experiment [3], > 20000 nM; in experiment [4] it was > 20000 nM. The Emax in experiment [1] came out at 110%; in experiment [2], 0%; in experiment [3] it was 7%; in experiment [4], 9%.

For `CCOC(=O)N1CCCC(N2CCC(C(=O)NCC(C)C3CC3)CC2)CC1` (centres unmarked) [Example 39, ethyl 4-(4-((2-cyclopropylpropyl)carbamoyl)piperidin-1-yl)azepane-1-carboxylate], the EC50 in experiment [1] was 72.4 nM; in experiment [2], > 20000 nM; in experiment [3], > 20000 nM; in experiment [4] it was > 20000 nM. In addition, the Emax was 96% in experiment [1], 2% in experiment [2], 8% in experiment [3] and 13% in experiment [4].

As for `CCOC(=O)N1CCCC(N2CCC(F)(C(=O)NC(C)(C)CC)CC2)CC1` (centres unmarked) [Example 41, ethyl 4-(4-fluoro-4-((1,1-dimethylpropyl)carbamoyl)piperidin-1-yl)azepane-1-carboxylate], the EC50 was 39.8 nM in experiment [1], > 20000 nM in experiment [2], > 20000 nM in experiment [3] and 257 nM in experiment [4]. The Emax in experiment [1] came to 97%; in experiment [2] it was 41%; in experiment [3], 12%; in experiment [4], 88%.

As to `CCOC(=O)N1CCCC(N2CCC(C(=O)NCC3CC3)CC2)CC1` (centres unmarked) [Example 15, ethyl 4-(4-((cyclopropylmethyl)carbamoyl)piperidin-1-yl)azepane-1-carboxylate], the EC50 in experiment [1] is 112 nM; in experiment [2], > 20000 nM; in experiment [3], > 20000 nM; in experiment [4], 550 nM. Besides, the Emax in experiment [1] worked out at 107%; in experiment [2], 5%; in experiment [3], 12%; in experiment [4] it was 67%.

As to `CCOC(=O)N1CCC[C@@H](N2CCC(C(=O)NCC(C)C)CC2)CC1` [Example 64], the EC50 in experiment [1] was 107 nM; in experiment [2], > 20000 nM; in experiment [3], > 20000 nM; in experiment [4] it was 3240 nM. For the same molecule, the Emax in experiment [1] came out at 104%; in experiment [2], 5%; in experiment [3], 9%; in experiment [4], 81%.

With `CCOC(=O)N1CCCC(N2CCC(F)(C(=O)NCC3CC3)CC2)CC1` (centres unmarked) [Example 52, ethyl 4-(4-fluoro-4-((cyclopropylmethyl)carbamoyl)piperidin-1-yl)azepane-1-carboxylate], the EC50 was 229 nM in experiment [1], > 20000 nM in experiment [2], > 20000 nM in experiment [3] and 501 nM in experiment [4]. Further, the Emax in experiment [1] worked out at 95%; in experiment [2] it was 9%; in experiment [3], 5%; in experiment [4], 84%.

Consider `CCOC(=O)N1CCCC(N2CCC(F)(C(=O)NCC3CCCC3)CC2)CC1` (centres unmarked) [Example 53, ethyl 4-(4-fluoro-4-((cyclopentylmethyl)carbamoyl)piperidin-1-yl)azepane-1-carboxylate], for which the EC50 was 97.7 nM in experiment [1], > 20000 nM in experiment [2], > 20000 nM in experiment [3] and 977 nM in experiment [4]. Further, the Emax in experiment [1] is 122%; in experiment [2] it was 9%; in experiment [3] it was 17%; in experiment [4] it was 90%.

`CCOC(=O)N1CCCC(N2CCC(C(=O)NCC3(C)CCCC3)CC2)CC1` (centres unmarked) [Example 18]: the EC50 was 83.2 nM in experiment [1], > 20000 nM in experiment [2], > 20000 nM in experiment [3] and 589 nM in experiment [4]. Besides, the Emax turned out to be 101% in experiment [1], 7% in experiment [2], 4% in experiment [3] and 39% in experiment [4].

As for `C#CCOC(=O)N1CCCC(N2CCC(C(=O)NCC(C)C)CC2)CC1` (centres unmarked) [Example 57, prop-2-yn-1-yl-4-(4-((2-methylpropyl)carbamoyl)piperidin-1-yl)azepane-1-carboxylate], the EC50 in experiment [1] is 93.3 nM; in experiment [2], > 20000 nM; in experiment [3], > 20000 nM; in experiment [4], 417 nM. Further, the Emax was 93% in experiment [1], 5% in experiment [2], 8% in experiment [3] and 82% in experiment [4].

Consider `CCOC(=O)N1CCCC(N2CCC(C(=O)NC(C)(C)C(C)C)CC2)CC1` (centres unmarked) [Example 31, ethyl 4-(4-((2,3-dimethylbutan-2-yl)carbamoyl)piperidin-1-yl)azepane-1-carboxylate], for which the EC50 in experiment [1] is 31.6 nM; in experiment [2] it was > 20000 nM; in experiment [3], > 20000 nM; in experiment [4] it was 123 nM. Also, the Emax was 122% in experiment [1], 0% in experiment [2], 13% in experiment [3] and 90% in experiment [4].

`CCOC(=O)N1CCC[C@H](N2CCC(C(=O)NCC(C)C)CC2)CC1` [Example 63]: the EC50 was 69.2 nM in experiment [1], > 20000 nM in experiment [2], > 20000 nM in experiment [3] and 646 nM in experiment [4]. The Emax in experiment [1] turned out to be 107%; in experiment [2] it was 5%; in experiment [3], 5%; in experiment [4] it was 89%.

(Values after US10973832B2, “Muscarinic M1 receptor agonists” (Heptares Therapeutics Limited, priority 2011, dated 2021).)
